The assay concerns the target T1, MN (Saccharomyces cerevisiae, UniProt P39731+P47149).
T1 construct: made in house; host or cells: E. coli BL21 (DE3)
T1 sequence (P39731 1-289): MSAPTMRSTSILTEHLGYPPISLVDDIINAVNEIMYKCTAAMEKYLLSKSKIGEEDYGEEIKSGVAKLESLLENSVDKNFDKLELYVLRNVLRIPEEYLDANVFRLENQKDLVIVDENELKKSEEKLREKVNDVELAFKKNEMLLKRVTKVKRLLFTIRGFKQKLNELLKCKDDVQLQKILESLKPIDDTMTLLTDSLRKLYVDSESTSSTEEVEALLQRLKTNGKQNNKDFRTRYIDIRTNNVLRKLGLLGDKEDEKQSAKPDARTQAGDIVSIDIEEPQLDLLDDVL
T1 sequence (P47149 1-201): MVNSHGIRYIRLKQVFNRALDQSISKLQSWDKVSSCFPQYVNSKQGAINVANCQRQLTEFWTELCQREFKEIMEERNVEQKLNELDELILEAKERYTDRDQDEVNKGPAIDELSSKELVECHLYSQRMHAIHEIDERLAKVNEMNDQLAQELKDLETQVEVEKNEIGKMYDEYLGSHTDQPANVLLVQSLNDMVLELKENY
As to the kind of experiment: Isothermal titration calorimetry (ITC) with MN. It counts as binding, budding yeast (S. cerevisiae). Particulars: summary of FP and ITC assays. From the text:
Figure 5 The Mif2 N‐terminus is prevented from high‐affinity Mtw1c binding in the full‐length molecule • Co‐purification of Strep‐Mtw1c through Flag‐Mif2 after co‐expression in insect cells. Proteins were detected by Western blotting using their respective tags. • Western blotting of elution fractions from an SEC experiment of Mif2‐wt or Mif2^Ame1‐N swap in the absence (upper panel) or presence (lower panel) of Mtw1c. • ITC analysis of Mif2^1‐41 or Ame1^1‐20 binding to MN. Experiments were performed 3 or 4 times, respectively. One representative binding curve is shown, whereas the KD value represents the average of all experiments. • Cross‐link (XL) MS analysis of the Mif2wt protein in isolation or bound to Cse4n using the cross‐linker Bis[sulfosuccinimidyl] glutarate. Mif2wt alone or in combination with Cse4n was subjected to analytical size‐exclusion chromatography at 10 μM concentration. The corresponding Coomassie‐stained SDS–PAGE gels of Mif2‐wt alone or in combination with Cse4n are shown. Fractions used for cross‐linking are highlighted. […]
The binding constant of Ame1 could only be indirectly measured in the FP competition assay, as labeling of Ame1 N‐terminal peptides rendered them insoluble. We therefore directly determined binding affinities of Mif2 and Ame1 N‐terminal peptides to MN using isothermal titration calorimetry (ITC). […]
For orientation: Isothermal titration calorimetry measures the heat released or taken up as one component is titrated into another.

Where no end group is shown, it is not given here.

Consider “MDYMKLGLKSRKTGIDVKQDIPKDEYSMENIDDFFKDDETS [Mif2^1‐41]”, for which the “dissociation constants for Mtw1 constructs” value is recorded as “low micromolar range”.

(Values after article PMC7360964, “Auto‐inhibition of Mif2/CENP‐C ensures centromere‐dependent kinetochore assembly in budding yeast” (The EMBO Journal, 2020).)
